In patent publication US10689378B2, “Triazolopyridine compounds and uses thereof” (Novartis AG, priority 2016, dated 2020):
Where two headings read alike, the source gives them in different places.

How the values were obtained:
[1] = biological target: wild type PRC2 (wtPRC2) complex (Homo sapiens, UniProt O75530); test: EED LC-MS assay (SAH production by PRC2); type: biochemical
Method in brief: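 Pentameric PRC2 (EZH2, SUZ12, EED, Rbap48, AEBP), 12 nM final, preincubated 20 min with compound and SAM, then 1.5 μM biotinylated H3K27me0 peptide, 1 μM SAM, pH 8.0, 120 min at rt. SAH quantified by LC-MS/MS with d4-SAH; control-normalized activity fitted for IC50.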

[2] = system: H3K27 methylation in G401 cell; test: ELISA (H3K27 methylation) assay in G401 cells; type: cell-based, human; details: Homo sapiens
Method in brief: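 G401 cells treated 48 h with 3-fold dilutions (8 or 12 points, top 20 μM). Acid-extracted histones probed by ELISA for H3K27me3 or H3K27me2 with ECL readout, normalized to total H3. Percent inhibition versus DMSO fitted to dose-response curve for IC50.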

EED (1-441)-His protein = biological target: T1, EED (1-441)-His protein (Homo sapiens, UniProt O75530); test: EED-H3K27Me3 peptide competition binding assay by AlphaScreen
T1 construct: 30 nM EED (1-441)-His protein
Method in brief: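 Serially diluted compound (12 points, 3-fold) incubated 20 min with 30 nM EED(1-441)-His and 15 nM biotin-H3K27Me3(19-33) peptide in 25 mM HEPES pH 8, 0.02% Tween-20, 0.5% BSA. Ni-chelate acceptor/streptavidin donor beads (10 μg/mL each) added, 1 h rt dark; 615 nm emission normalized to controls, dose-response fit for IC50.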

[3] = PRC2 LC-MS assay, read-out: (b) IC50 EED LC-MS Qualified
[4] = G-401, H3K27 methylation ELISA, read-out: (c) IC50 ELISA Qualified
[5] = EED-H3K27Me3 peptide competition, AlphaScreen, read-out: (a) IC50 EED Alphascreen binding Qualified
[6] = read-out: (b) IC50, EED LC-MS Qualified
[7] = G-401, read-out: (c) IC50, ELISA Qualified
[8] = read-out: (a) IC50, EED Alphascreen binding Qualified

T1 sequence (O75530 whole entry): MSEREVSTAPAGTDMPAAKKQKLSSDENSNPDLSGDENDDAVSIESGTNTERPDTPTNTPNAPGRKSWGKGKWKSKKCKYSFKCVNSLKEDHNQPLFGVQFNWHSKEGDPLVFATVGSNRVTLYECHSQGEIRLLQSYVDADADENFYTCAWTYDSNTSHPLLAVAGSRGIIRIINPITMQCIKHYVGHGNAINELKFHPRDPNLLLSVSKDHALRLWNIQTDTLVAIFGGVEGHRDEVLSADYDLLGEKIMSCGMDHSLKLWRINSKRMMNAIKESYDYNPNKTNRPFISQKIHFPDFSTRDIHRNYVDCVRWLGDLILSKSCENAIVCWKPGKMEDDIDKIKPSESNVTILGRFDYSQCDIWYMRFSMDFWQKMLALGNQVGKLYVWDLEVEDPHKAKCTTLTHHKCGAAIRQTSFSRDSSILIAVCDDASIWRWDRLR
wild type PRC2 (wtPRC2) complex, sequence (O75530 whole entry): as above
wild type PRC2 (wtPRC2) complex, sequence (Q15910 whole entry partner): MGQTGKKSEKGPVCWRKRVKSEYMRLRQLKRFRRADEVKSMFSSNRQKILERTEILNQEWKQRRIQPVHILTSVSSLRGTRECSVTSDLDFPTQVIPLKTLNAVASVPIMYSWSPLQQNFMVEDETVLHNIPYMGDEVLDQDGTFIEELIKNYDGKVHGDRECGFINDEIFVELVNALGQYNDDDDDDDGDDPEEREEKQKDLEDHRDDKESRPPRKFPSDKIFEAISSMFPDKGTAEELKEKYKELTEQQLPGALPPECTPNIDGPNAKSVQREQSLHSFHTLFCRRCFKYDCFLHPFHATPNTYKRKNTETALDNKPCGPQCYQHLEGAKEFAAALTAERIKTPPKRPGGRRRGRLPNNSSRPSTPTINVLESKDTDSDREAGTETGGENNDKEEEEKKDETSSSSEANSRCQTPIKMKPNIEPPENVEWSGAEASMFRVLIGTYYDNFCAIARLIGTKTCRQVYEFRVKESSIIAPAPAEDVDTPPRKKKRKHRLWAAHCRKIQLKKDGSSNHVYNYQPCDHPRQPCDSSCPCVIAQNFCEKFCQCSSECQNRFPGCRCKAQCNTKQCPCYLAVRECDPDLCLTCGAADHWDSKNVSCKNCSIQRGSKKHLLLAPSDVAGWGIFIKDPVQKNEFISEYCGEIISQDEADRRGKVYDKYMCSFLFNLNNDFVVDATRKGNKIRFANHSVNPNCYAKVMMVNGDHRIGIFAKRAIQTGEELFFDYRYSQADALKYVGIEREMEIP
wild type PRC2 (wtPRC2) complex, sequence (Q15022 whole entry partner): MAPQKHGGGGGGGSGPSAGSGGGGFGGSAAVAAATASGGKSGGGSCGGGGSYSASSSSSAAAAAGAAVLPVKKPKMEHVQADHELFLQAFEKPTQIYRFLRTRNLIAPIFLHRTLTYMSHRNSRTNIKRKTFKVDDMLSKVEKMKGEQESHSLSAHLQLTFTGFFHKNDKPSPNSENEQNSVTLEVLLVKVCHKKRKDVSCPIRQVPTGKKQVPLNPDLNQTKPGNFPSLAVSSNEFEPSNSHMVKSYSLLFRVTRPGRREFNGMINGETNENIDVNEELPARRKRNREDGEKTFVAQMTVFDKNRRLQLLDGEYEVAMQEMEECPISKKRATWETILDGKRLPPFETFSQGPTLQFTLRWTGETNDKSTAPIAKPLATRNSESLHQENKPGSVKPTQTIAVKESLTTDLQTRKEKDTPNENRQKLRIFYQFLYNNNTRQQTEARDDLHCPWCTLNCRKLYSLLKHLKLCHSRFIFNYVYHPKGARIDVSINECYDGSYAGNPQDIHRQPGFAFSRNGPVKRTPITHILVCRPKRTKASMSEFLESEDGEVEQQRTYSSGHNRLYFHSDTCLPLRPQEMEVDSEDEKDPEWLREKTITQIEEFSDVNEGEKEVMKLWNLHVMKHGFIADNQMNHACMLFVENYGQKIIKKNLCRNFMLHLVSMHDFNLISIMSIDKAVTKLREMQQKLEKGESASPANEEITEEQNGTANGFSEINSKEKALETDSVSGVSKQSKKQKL
wild type PRC2 (wtPRC2) complex, sequence (Q09028 whole entry partner): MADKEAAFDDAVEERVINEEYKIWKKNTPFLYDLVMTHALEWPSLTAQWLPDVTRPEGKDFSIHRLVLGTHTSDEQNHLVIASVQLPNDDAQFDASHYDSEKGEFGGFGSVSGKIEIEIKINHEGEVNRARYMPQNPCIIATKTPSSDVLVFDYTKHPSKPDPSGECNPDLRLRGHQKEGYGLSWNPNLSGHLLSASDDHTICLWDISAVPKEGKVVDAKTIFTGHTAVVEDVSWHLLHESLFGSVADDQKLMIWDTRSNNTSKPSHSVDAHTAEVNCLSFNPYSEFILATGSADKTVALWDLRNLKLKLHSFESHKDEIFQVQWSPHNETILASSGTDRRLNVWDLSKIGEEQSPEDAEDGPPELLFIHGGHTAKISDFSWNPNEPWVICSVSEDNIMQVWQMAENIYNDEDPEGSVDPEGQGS
wild type PRC2 (wtPRC2) complex, sequence (Q6ZN18 whole entry partner): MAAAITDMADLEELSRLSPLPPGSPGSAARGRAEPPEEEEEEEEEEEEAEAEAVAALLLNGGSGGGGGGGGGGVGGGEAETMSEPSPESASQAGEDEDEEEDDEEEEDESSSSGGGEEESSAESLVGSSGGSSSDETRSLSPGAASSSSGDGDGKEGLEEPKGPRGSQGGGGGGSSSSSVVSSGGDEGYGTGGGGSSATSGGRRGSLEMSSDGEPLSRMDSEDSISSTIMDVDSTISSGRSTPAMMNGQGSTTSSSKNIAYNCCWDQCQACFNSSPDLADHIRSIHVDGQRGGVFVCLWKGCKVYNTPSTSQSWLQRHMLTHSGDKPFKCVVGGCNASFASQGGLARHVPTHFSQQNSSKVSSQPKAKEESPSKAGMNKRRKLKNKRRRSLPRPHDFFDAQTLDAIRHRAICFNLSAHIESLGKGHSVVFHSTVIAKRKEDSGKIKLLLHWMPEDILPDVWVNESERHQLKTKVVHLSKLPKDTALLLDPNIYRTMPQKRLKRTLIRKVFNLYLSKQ

Row | Compound | IC50 [1, 3] [nM] | IC50 [2, 4] [nM] | IC50 (EED (1-441)-His protein; [5]) [nM] | IC50 [1, 6] [nM] | IC50 [2, 7] [nM] | IC50 (EED (1-441)-His protein; [8]) [nM] | other results
1 | COc1cccc(F)c1CNc1ccc(-c2ccc(CNC(C)=O)nc2)c2nncn12 [Example 256, N-((5-(5-((2-fluoro-6-methoxybenzyl)amino)-[1,2,4]triazolo[4,3-a]pyridin-8-yl)pyridin-2-yl)methyl) acetamide] | 159 | 10.4 | 25.1 | – | – | – | –
2 | COc1cccc(F)c1CNc1ccc(-c2ccc(NS(C)(=O)=O)c(F)c2)c2nncn12 [Example 106, N-(2-fluoro-4-(5-((2-fluoro-6-methoxybenzyl)amino)-[1,2,4]triazolo[4,3-a]pyridin-8-yl)phenyl) methanesulfonamide] | – | – | – | 454 | 53 | 46.8 | –
3 | COc1ccccc1CNc1ccc(-c2ccc(CN3CC(F)C3)cc2)c2nncn12 [Example 66, 8-(4-((3-fluoroazetidin-1-yl)methyl)phenyl)-N-(2-methoxybenzyl)-[1,2,4] triazolo[4,3-a]pyridin-5-amine] | – | – | – | 252 | 29.9 | 11.8 | –
4 | COc1ncccc1CNc1ccc(-c2cccnc2C)c2nncn12 [Example 328, N-((2-methoxypyridin-3-yl)methyl)-8-(2-methylpyridin-3-yl)-[1,2,4]triazolo[4,3-a] pyridin-5-amine] | 284 | 76.3 | 73.5 | – | – | – | –
5 | COc1cccc(F)c1CNc1ccc(-c2ccc(S(C)(=O)=O)nc2C)c2nncn12 [Example 185, N-(2-fluoro-6-methoxybenzyl)-8-(2-methyl-6-(methylsulfonyl)pyridin-3-yl)-[1,2,4]triazolo[4,3-a] pyridin-5-amine] | 18.5 | 3.6 | 7.9 | – | – | – | –
6 | CCN1CCC(S(=O)(=O)c2ccc(-c3ccc(NCc4c(F)cccc4OC)n4cnnc34)cn2)CC1 [Example 149, 8-(6-((1-ethylpiperidin-4-yl)sulfonyl)pyridin-3-yl)-N-(2-fluoro-6-methoxybenzyl)-[1,2,4]triazolo[4,3-a]pyridin-5-amine] | – | – | – | 27.1 | 14.9 | 18.2 | –
7 | COc1cccc(F)c1CNc1ccc(-c2ccc(S(C)(=O)=O)cc2C)c2nncn12 [Example 229, N-(2-fluoro-6-methoxybenzyl)-8-(2-methyl-4-(methylsulfonyl)phenyl)-[1,2,4]triazolo[4,3-a]pyridin-5-amine] | 55.9 | 13.5 | 16.1 | – | – | – | –
8 | COc1cccc(F)c1CNc1ccc(-c2cnc(C(C)C)cc2C)c2nncn12 [Example 352, N-(2-fluoro-6-methoxybenzyl)-8-(6-isopropyl-4-methylpyridin-3-yl)-[1,2,4] triazolo[4,3-a]pyridin-5-amine] | – | – | – | – | – | – | IC50 ([1]; read-out: (b) IC50 EED LC-MS Qualified): 106 nM; IC50 ([2]; G-401, read-out: (c) IC50 ELISA Qualified): 32 nM; IC50 (EED (1-441)-His protein; read-out: (a) IC50 EED Alphascreen binding Qualified): 29.5 nM
9 | COc1cccc(F)c1CNc1ccc(-c2ccnc(CCO)c2)c2nncn12 [Example 175, 2-(4-(5-((2-fluoro-6-methoxybenzyl)amino)-[1,2,4]triazolo[4,3-a]pyridin-8-yl)pyridin-2-yl)ethanol] | 148 | 23.9 | 35.9 | – | – | – | –
10 | COc1ccccc1CNc1ccc(-c2ccnc(C)c2)c2nncn12 [Example 91, N-(2-methoxybenzyl)-8-(2-methylpyridin-4-yl)-[1,2,4] triazolo[4,3-a]pyridin-5-amine] | – | – | – | 278 | 60.8 | 37.5 | –
11 | COc1cccc(F)c1CNc1ccc(-c2ccc(S(N)(=O)=O)cc2)c2nncn12 [Example 100, 4-(5-((2-fluoro-6-methoxybenzyl)amino)-[1,2,4]triazolo[4,3-a]pyridin-8-yl)benzenesulfonamide] | – | – | – | 139 | 40 | 12.4 | –
12 | COc1cccc(F)c1CNc1ccc(-c2cnc(S(C)(=O)=O)cc2C)c2nncn12 [Example 184, N-(2-fluoro-6-methoxybenzyl)-8-(4-methyl-6-(methylsulfonyl)pyridin-3-yl)-[1,2,4]triazolo[4,3-a] pyridin-5-amine] | 77.7 | 25 | 46.4 | – | – | – | –
13 | COc1cccc(F)c1CNc1ccc(-c2ccc(F)cc2C)c2nncn12 [Example 201, 8-(4-fluoro-2-methylphenyl)-N-(2-fluoro-6-methoxybenzyl)-[1,2,4]triazolo[4,3-a] pyridin-5-amine] | 366 | 71.7 | 46.5 | – | – | – | –
14 | COc1cccc(F)c1CNc1ccc(-c2cnc(C)nc2)c2nncn12 [Example 161, N-(2-fluoro-6-methoxybenzyl)-8-(2-methylpyrimidin-5-yl)-[1,2,4] triazolo[4,3-a]pyridin-5-amine] | – | – | – | 90.1 | 26.1 | 48.7 | –
15 | COc1cccc(F)c1CNc1ccc(-c2cc(C)ncc2C)c2nncn12 [Example 305, 8-(2,5-dimethylpyridin-4-yl)-N-(2-fluoro-6-methoxybenzyl)-[1,2,4]triazolo[4,3-a] pyridin-5-amine] | 94.6 | 28.2 | 52.6 | – | – | – | –
16 | COc1ccccc1CNc1ccc(-c2ccc(S(=O)(=O)C3CCNCC3)cc2)c2nncn12 [Example 53, N-(2-methoxybenzyl)-8-(4-(piperidin-4-ylsulfonyl)phenyl)-[1,2,4]triazolo[4,3-a] pyridin-5-amine] | – | – | – | 144 | 36.5 | 27.9 | –
17 | COc1cccc(F)c1CNc1ccc(-c2cc(C(F)(F)F)ncc2C)c2nncn12 [Example 281, N-(2-fluoro-6-methoxybenzyl)-8-(5-methyl-2-(trifluoromethyl)pyridin-4-yl)-[1,2,4]triazolo[4,3-a] pyridin-5-amine] | 124 | 16.9 | 23 | – | – | – | –
18 | COc1cccc(F)c1CNc1ccc(-c2cnn(CCN3CCOCC3)c2)c2nncn12 [Example 226, N-(2-fluoro-6-methoxybenzyl)-8-(1-(2-morpholinoethyl)-1H-pyrazol-4-yl)-[1,2,4] triazolo[4,3-a]pyridin-5-amine] | 92 | 38.8 | 43.3 | – | – | – | –
19 | COc1cccc(F)c1CNc1ccc(-c2cccnc2CO)c2nncn12 [Example 303, (3-(5-((2-fluoro-6-methoxy benzyl)amino)-[1,2,4]triazolo[4,3-a]pyridin-8-yl)pyridin-2-yl)methanol] | 20.4 | 15.5 | 27.6 | – | – | – | –
20 | COc1ccccc1CNc1ccc(-c2ccc(C[N+](C)(C)[O-])cc2)c2nncn12 [Example 40, 1-(4-(5-((2-methoxybenzyl)amino)-[1,2,4]triazolo[4,3-a]pyridin-8-yl)phenyl)-N,N-dimethylmethanamine oxide] | – | – | – | 457 | 138 | 78 | –
21 | COc1cccc(F)c1CNc1ccc(-c2ccc(C)nc2C(F)F)c2nncn12 [Example 315, 8-(2-(difluoromethyl)-6-methylpyridin-3-yl)-N-(2-fluoro-6-methoxybenzyl)-[1,2,4]triazolo[4,3-a]pyridin-5-amine] | 21.5 | 7.8 | 7.7 | – | – | – | –
22 | COc1cccc(F)c1CNc1ccc(-c2ccc(C(=O)N(C)C)nc2)c2nncn12 [Example 194, 5-(5-((2-fluoro-6-methoxybenzyl)amino)-[1,2,4]triazolo[4,3-a]pyridin-8-yl)-N,N-dimethylpicolinamide] | 49.4 | 6.3 | 16.5 | – | – | – | –
23 | COc1ncc(-c2ccc(NCc3ccccc3OC)n3cnnc23)cn1 [Example 52, N-(2-methoxybenzyl)-8-(2-methoxypyrimidin-5-yl)-[1,2,4]triazolo[4,3-a]pyridin-5-amine] | – | – | – | 735 | 106 | 89.4 | –
24 | COc1cccc(F)c1CNc1ccc(-c2ccc(C)nc2)c2nncn12 [Example 164, N-(2-fluoro-6-methoxybenzyl)-8-(6-methylpyridin-3-yl)-[1,2,4]triazolo[4,3-a]pyridin-5-amine] | – | – | – | 120 | 36 | 33.2 | –
25 | COc1ccccc1CNc1ccc(-c2c(C)noc2C)c2nncn12 [Example 62, 8-(3,5-dimethylisoxazol-4-yl)-N-(2-methoxybenzyl)-[1,2,4]triazolo[4,3-a]pyridin-5-amine] | – | – | – | 321 | 66.7 | 43.6 | –
26 | COc1cccc(F)c1CNc1ccc(-c2ccc(CN(C)C)cc2)c2nncn12 [Example 45, 8-(4-((dimethylamino)methyl)phenyl)-N-(2-fluoro-6-methoxybenzyl)-[1,2,4] triazolo[4,3-a]pyridin-5-amine] | – | – | – | 23.3 | 7.6 | 17.7 | –
27 | COc1cccc(F)c1CNc1ccc(-c2cnc(S(C)(=O)=O)cc2C(F)F)c2nncn12 [Example 301, 8-(4-(difluoromethyl)-6-(methylsulfonyl)pyridin-3-yl)-N-(2-fluoro-6-methoxybenzyl)-[1,2,4]triazolo[4,3-a] pyridin-5-amine] | 93.4 | 6.4 | 23.7 | – | – | – | –
